Molecules are shown by their SMILES.

The values below come from ChEMBL document CHEMBL1133741, “New anilinophthalazines as potent and orally well absorbed inhibitors of the VEGF receptor tyrosine kinases useful as antagonists of tumor-driven angiogenesis” (J Med Chem, 2000).

Data set [1] has as its target Platelet-derived growth factor receptor beta (Homo sapiens, UniProt P09619). Description: Inhibition of PDGF- beta receptor kinase.
Data set [2] in a line: (§1) The maximum concentration observed (Cmax) in the blood sample at indicated time point (tmax) at a dose 50 mg/Kg administered orally in mice. In kind it is ADME, organism-based. Further details: dose 50 mg/Kg, route oral. To be noted: mouse, in vivo, po.
Data set [3] can be described thus: The maximum time reported (tmax) at an oral dose of 50 mg/Kg in mice. In kind it is ADME, organism-based. To be noted: mouse, in vivo.
The target of data set [4] is Mast/stem cell growth factor receptor Kit (Homo sapiens, UniProt P10721). Briefly: Inhibition of Proto-oncogene tyrosine-kinase c-Kit.
Chain of Mast/stem cell growth factor receptor Kit (P10721 whole entry): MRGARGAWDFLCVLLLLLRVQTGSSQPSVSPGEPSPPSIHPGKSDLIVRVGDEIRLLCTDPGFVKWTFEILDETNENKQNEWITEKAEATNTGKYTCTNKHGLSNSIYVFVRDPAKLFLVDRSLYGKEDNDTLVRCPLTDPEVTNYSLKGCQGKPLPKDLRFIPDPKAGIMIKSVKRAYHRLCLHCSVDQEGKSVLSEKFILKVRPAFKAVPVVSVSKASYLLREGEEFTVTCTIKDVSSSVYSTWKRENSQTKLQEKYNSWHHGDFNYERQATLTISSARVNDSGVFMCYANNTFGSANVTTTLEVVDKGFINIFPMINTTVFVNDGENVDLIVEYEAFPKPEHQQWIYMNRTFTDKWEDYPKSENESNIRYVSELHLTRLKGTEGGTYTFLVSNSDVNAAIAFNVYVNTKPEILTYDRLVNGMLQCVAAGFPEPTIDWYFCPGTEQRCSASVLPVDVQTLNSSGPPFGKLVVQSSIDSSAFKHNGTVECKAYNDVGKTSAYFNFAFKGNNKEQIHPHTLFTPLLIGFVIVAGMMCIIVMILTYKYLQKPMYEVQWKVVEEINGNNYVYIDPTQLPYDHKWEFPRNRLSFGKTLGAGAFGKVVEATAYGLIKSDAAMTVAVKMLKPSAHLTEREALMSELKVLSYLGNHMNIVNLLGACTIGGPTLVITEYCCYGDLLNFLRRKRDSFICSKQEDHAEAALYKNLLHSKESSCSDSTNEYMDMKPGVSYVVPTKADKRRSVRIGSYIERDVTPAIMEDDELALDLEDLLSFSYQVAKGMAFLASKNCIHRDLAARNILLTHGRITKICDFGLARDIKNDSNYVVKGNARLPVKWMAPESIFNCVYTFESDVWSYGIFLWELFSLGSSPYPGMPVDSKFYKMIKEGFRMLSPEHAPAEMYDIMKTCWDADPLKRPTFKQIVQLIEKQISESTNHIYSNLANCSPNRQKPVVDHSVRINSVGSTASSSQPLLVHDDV
Data set [5] has as its target Vascular endothelial growth factor receptor 1 (Homo sapiens, UniProt P17948). Description: Inhibitory activity against Flt-kinase.
Data set [6] deals with T1, Vascular endothelial growth factor receptor 2 (Homo sapiens, UniProt P35968). Briefly: Inhibitory activity against kinase domain containing receptor (KDR/VEGFR2).
T1 sequence (P35968 whole entry, the tested form may be a part): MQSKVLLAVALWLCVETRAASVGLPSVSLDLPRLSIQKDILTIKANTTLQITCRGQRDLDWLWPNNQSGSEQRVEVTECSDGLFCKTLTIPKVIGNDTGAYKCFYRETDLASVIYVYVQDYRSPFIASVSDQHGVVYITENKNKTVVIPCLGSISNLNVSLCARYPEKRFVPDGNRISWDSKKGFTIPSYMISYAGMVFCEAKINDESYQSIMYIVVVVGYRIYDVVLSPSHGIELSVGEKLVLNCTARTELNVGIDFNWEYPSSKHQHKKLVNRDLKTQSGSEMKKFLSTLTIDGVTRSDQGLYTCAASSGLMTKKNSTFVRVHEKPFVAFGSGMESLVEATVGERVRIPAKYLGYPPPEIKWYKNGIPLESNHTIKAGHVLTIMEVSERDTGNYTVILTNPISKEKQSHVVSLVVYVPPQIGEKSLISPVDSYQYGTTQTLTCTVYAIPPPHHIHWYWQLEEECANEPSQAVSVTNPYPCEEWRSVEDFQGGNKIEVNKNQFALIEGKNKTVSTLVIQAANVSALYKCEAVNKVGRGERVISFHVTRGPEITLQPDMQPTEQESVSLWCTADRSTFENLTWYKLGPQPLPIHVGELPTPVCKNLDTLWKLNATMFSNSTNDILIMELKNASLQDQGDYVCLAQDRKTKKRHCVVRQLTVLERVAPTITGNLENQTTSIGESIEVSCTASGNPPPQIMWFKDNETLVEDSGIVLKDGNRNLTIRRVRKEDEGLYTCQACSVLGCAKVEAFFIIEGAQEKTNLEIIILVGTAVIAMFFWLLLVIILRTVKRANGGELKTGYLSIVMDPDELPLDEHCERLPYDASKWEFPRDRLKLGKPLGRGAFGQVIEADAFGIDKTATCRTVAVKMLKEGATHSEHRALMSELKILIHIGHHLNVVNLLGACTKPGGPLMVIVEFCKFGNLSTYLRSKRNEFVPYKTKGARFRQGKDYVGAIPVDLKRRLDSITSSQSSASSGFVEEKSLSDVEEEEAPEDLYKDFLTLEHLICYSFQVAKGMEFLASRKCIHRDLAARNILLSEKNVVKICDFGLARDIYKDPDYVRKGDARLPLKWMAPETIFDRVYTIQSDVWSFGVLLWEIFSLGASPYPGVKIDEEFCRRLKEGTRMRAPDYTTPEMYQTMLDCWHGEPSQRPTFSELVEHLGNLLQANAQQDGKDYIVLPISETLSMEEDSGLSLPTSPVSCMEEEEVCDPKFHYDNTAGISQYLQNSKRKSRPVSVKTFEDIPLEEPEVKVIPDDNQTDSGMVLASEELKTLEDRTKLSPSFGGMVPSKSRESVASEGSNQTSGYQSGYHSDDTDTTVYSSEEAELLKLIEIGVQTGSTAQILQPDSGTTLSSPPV
The target of data set [7] is T1, Vascular endothelial growth factor receptor 2. Conditions: CHO.
In data set [8] the test system is Mus musculus. Described as §1. Conditions: in vivo, po. Further details: dose 50 mg/Kg, route oral. In kind it is ADME, organism-based.

Chain of Vascular endothelial growth factor receptor 1 (P17948 whole entry, the tested form may be a part): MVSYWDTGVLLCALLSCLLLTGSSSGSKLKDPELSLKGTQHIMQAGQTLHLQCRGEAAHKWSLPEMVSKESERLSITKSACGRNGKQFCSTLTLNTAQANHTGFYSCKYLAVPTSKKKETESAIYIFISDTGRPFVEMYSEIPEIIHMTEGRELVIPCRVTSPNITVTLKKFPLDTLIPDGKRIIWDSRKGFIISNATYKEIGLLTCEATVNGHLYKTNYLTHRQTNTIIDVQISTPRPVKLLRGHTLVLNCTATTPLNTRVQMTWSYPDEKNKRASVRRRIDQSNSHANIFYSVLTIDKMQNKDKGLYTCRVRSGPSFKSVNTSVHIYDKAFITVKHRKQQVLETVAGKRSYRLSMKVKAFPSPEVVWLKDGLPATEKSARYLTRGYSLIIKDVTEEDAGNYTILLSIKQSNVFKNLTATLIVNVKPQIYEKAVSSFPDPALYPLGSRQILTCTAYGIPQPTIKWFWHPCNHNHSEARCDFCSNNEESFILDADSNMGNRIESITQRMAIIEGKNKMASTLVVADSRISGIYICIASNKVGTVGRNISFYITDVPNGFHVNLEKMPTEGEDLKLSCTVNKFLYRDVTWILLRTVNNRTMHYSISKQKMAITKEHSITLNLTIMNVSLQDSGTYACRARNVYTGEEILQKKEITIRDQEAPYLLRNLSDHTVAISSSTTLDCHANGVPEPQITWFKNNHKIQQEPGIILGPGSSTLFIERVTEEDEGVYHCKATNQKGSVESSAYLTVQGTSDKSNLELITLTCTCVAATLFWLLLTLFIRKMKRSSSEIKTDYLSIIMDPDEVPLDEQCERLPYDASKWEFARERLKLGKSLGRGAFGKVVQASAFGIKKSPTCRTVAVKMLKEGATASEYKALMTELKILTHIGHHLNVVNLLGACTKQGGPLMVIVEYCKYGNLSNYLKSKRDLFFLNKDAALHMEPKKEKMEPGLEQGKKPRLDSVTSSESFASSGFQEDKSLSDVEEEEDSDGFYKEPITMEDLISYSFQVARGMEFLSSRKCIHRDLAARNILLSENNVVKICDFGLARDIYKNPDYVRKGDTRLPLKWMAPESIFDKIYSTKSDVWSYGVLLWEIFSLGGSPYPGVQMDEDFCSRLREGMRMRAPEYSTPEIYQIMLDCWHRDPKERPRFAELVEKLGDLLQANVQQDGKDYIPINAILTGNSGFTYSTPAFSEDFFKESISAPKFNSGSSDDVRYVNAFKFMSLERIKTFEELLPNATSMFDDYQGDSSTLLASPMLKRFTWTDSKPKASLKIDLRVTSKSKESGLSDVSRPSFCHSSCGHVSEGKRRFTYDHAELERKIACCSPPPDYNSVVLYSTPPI
Chain of Platelet-derived growth factor receptor beta (P09619 whole entry): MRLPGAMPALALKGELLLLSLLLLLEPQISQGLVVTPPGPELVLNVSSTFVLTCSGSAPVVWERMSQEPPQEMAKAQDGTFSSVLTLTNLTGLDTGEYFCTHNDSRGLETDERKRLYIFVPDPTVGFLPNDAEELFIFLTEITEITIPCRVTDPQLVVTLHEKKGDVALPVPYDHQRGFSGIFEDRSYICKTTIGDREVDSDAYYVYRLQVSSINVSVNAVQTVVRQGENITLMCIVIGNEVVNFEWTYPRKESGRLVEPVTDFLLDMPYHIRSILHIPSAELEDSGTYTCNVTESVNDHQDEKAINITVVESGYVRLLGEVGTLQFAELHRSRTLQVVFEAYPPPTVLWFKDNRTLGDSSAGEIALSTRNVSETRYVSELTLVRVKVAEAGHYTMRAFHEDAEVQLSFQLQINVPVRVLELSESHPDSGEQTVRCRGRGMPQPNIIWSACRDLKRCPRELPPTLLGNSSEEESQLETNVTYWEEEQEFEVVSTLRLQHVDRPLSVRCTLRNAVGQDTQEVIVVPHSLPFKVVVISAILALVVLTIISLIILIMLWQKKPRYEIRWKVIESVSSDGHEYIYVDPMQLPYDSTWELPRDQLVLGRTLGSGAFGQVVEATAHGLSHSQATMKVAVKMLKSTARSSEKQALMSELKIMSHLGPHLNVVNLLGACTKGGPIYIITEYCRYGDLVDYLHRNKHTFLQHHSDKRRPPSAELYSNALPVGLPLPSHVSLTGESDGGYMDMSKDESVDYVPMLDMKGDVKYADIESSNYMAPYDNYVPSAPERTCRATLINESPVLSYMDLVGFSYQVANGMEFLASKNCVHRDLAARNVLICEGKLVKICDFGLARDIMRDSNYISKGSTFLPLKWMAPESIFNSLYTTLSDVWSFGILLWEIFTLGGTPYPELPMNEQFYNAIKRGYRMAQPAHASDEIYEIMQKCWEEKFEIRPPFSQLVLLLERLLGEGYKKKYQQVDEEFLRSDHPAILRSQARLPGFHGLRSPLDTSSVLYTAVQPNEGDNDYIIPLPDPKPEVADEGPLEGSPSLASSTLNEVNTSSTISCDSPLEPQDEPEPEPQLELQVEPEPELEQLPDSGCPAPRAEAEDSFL

Consider `CC(C)(C)c1ccc(Nc2nnc(Cc3ccncc3)c3ccccc23)cc1`, for which the IC50 in data set [1] is 2000 nM; in data set [4], 1000 nM. The compound also came in with a maximum concentration (Cmax) in data set [2] of 25.6 µM. Besides, the Tmax in data set [3] was 30 min.
`Clc1ccc(Nc2nnc(Cc3ccncc3)c3ncccc23)cc1`: it took 240 nM to reach half-maximal inhibition in data set [5] (IC50).
As for `Clc1ccc(Oc2nnc(Cc3ccncc3)c3ccccc23)cc1`, the IC50 was 1600 nM in data set [6] and 60 nM in data set [5].
In data set [5], `Nc1ccc2c(Cc3ccncc3)nnc(Nc3ccc(Cl)cc3)c2c1` registered a half-maximal inhibitory concentration (IC50) of 650 nM.
On to `Clc1ccc(Sc2nnc(Cc3ccncc3)c3ccccc23)cc1`, for which the IC50 amounted to 1300 nM in data set [6] and 70 nM in data set [5].
For `COc1cccc(Nc2nnc(Cc3ccncc3)c3ccccc23)c1`, the half-inhibitory concentration (IC50) in data set [1] turned out to be 800 nM; in data set [4] it was 3000 nM. The same compound displayed a Cmax in data set [2] of 21 µM. Besides, the time of peak concentration (Tmax) in data set [3] was 30 min.
For the compound `Clc1ccc(Nc2nnc(Cc3ccncc3)c3c2CCCC3)cc1`, the IC50 in data set [6] is greater than 10000 nM; in data set [5] it was 3600 nM.
In data set [7], `Fc1cc(Nc2nnc(Cc3ccncc3)c3ccccc23)cc(C(F)(F)F)c1` registered an ED50 of 40 nM. For the same compound, the IC50 in data set [6] was 200 nM; in data set [5] it was 350 nM; in data set [1], greater than 10000 nM; in data set [4], greater than 10000 nM.
As to `FC(F)(F)c1cc(Br)cc(Nc2nnc(Cc3ccncc3)c3ccccc23)c1`, the ED50 in data set [7] was 39 nM. Moreover, the 50% inhibitory concentration (IC50) in data set [6] was 380 nM; in data set [5], 600 nM; in data set [1], greater than 10000 nM; in data set [4] it was greater than 10000 nM. Moreover, the Cmax in data set [2] is 6 µM. Further, the Tmax in data set [3] is 120 min.
Take `Cc1cc(C)c(/C=C2\C(=O)Nc3ccccc32)[nH]1` [SEMAXANIB]: the ED50 in data set [7] was 930 nM. For the same compound, the Cmax in data set [8] came out at 0.3 µM. The time of peak concentration (Tmax) in data set [3] is 30 min.
Consider `Cc1ccc2c(Cc3ccncc3)nnc(Nc3ccc(Cl)cc3)c2c1`, for which the results for the IC50 in data set [6] and in data set [5] were 4700 nM and 3000 nM, respectively.
With `Clc1ccc(Nc2nnc(NCc3ccncc3)c3ccccc23)cc1`, the IC50 in data set [6] came to 4700 nM; in data set [5], 2600 nM.
In data set [5], `Clc1ccc(Nc2nnc(Cc3ccncc3)c3cccnc23)cc1` returned an IC50 of 1700 nM.
Regarding `c1ccc(Nc2nnc(Cc3ccncc3)c3ccccc23)cc1`, the half-inhibitory concentration (IC50) in data set [1] is 2800 nM; in data set [4] it was greater than 10000 nM.
`Cc1cc(C)cc(Nc2nnc(Cc3ccncc3)c3ccccc23)c1` came in with an ED50 in data set [7] of 10 nM. Moreover, the IC50 in data set [6] was determined as 40 nM; in data set [5] it was 150 nM; in data set [1] it was 800 nM; in data set [4], 2000 nM. This compound registered a Cmax in data set [2] of 10 µM. In addition, the Tmax in data set [3] was 30 min.
In the case of `Clc1ccc(Nc2nnc(Cc3ccncc3)c3ccccc23)cc1.O=C(O)CCC(=O)O`, the peak level in data set [2] (Cmax) was 32 µM. The Tmax in data set [3] is 15 min.
Regarding `FC(F)(F)c1cc(Nc2nnc(Cc3ccncc3)c3ccccc23)ccc1Cl`, the results for the IC50 in data set [5], in data set [1] and in data set [4] were 600 nM, 4000 nM and 2700 nM, respectively. In data set [2], this compound had a Cmax of 7.6 µM. In data set [3], the Tmax is 120 min.
Regarding `CN(c1ccc(Cl)cc1)c1nnc(Cc2ccncc2)c2ccccc12`, the results for the IC50 in data set [6] and in data set [5] were 3500 nM and 2300 nM, respectively.
`Cc1cc(Cc2nnc(Nc3ccc(Cl)cc3)c3ccccc23)ccn1` came in with an IC50 in data set [6] of 240 nM.
`Clc1ccc(Nc2nnc(Cc3ccncc3)c3ccccc23)cc1Cl` registered an ED50 in data set [7] of 27 nM. The IC50 stood at 30 nM in data set [6], 70 nM in data set [5], 600 nM in data set [1] and 700 nM in data set [4]. Also, the peak level in data set [2] (Cmax) was 9.8 µM. Also, in data set [3], the Tmax was 30 min.
As for `Oc1cccc(Nc2nnc(Cc3ccncc3)c3ccccc23)c1`, the values for the IC50 in data set [1] and in data set [4] were 4000 nM and 7900 nM, respectively. In data set [2], the highest level (Cmax) was 0.5 µM. Besides, the Tmax in data set [3] was 30 min.
Regarding `COc1cc(Nc2nnc(Cc3ccncc3)c3ccccc23)ccc1Cl`, the results for the IC50 in data set [5], in data set [1] and in data set [4] were 260 nM, 2000 nM and 3500 nM, respectively. Moreover, the highest level in data set [2] (Cmax) was 8 µM. Further, the Tmax in data set [3] was 30 min.
Take `Cc1c(Cc2ccncc2)nnc(Nc2ccc(Cl)cc2)c1C`: inhibition in data set [5] was half-maximal at 260 nM (IC50).
`Cc1cccc(Nc2nnc(Cc3ccncc3)c3ccccc23)c1` returned an ED50 in data set [7] of 8 nM. Also, the half-maximal inhibitory concentration (IC50) in data set [6] stood at 80 nM; in data set [5], 40 nM; in data set [1], 1000 nM; in data set [4], 2500 nM. In data set [2], the Cmax came out at 13 µM. The Tmax in data set [3] was 30 min.
`Clc1ccc(Nc2nnc(Cc3ccncc3)c3cnccc23)cc1`: the IC50 was found to be 610 nM in data set [6] and 230 nM in data set [5].
In turn, `Clc1ccc(Nc2nnc(Cc3ccncc3)c3ccncc23)cc1` returned an IC50 in data set [5] of 470 nM.
Turning to `Clc1ccc(Nc2nnc(Cc3ccccn3)c3ccccc23)cc1`, the IC50 in data set [6] and in data set [5] was greater than 10000 nM throughout.
On to `Cc1cc(Cc2nnc(Nc3ccc(Cl)cc3)c3ccccc23)cc(C)n1`, for which the IC50 in data set [6] and in data set [5] was greater than 10000 nM each time.
Take `c1ccc(-c2ccc(Nc3nnc(Cc4ccncc4)c4ccccc34)cc2)cc1`: the IC50 in data set [1] and in data set [4] was 1400 nM throughout.
`Clc1ccc(Nc2nnc(Cc3ccncn3)c3ccccc23)cc1`: the figures for the IC50 in data set [6] and in data set [5] were 410 nM and 760 nM, respectively.
Taken in the same sequence, the figures for `CC(c1ccncc1)c1nnc(Nc2ccc(Cl)cc2)c2ccccc12` (centres undefined) were 210 nM and 420 nM.
In the same order, the values of `Clc1ccc(Nc2nnc(Cc3cccnc3)c3ccccc23)cc1` are greater than 10000 nM and 9800 nM.

What is called IC50 is the midpoint of a concentration-inhibition curve. A high value points to weaker potency. One may read the Cmax as the peak of the concentration-time curve. Usually Tmax stands for the time from dosing to the highest level.
